Test results reported in paper PMC11012064, “Synthesis of Antiprotozoal 2-(4-Alkyloxyphenyl)-Imidazolines and Imidazoles and Their Evaluation on Leishmania mexicana and Trypanosoma cruzi” (International Journal of Molecular Sciences, 2024).

How the values were obtained:
[1] = Cytotoxic effect on macrophages, resazurin; assay type: cell-based, murine; details: mouse, J774A.1 macrophages; J774A.1 murine macrophages, 20 h + 4 h resazurin; confidence interval (Probit) in parentheses; triplicate; read-out: Macrophages J774 CC50
Experimental: (§1) The microplate was incubated at 37 °C with 5% CO2 and humidity for 24 h to allow for the formation of a cell monolayer with a confluence of 80%. Subsequently, a concentration–response evaluation was carried out. Briefly, one of the compounds at the corresponding concentration was placed in each well with macrophages. […] As the negative cytotoxicity control, cells were exposed to 1% DMSO. The microplate was incubated at 37 °C with 5% CO2 and humidity for 20 h. Afterwards, 10 μL of 0.01% resazurin was added and the microplate was incubated for 4 h. As mentioned above, the microplate was read via a fluorometer at 544 nm excitation and 590 nm emission. Each treated well was compared to the negative cytotoxicity control and the data were expressed as a percentage of metabolic inhibition. The Probit statistical tool was used to calculate the CC50.

[2] = system: T. cruzi INC-5 epimastigotes; test: Metabolic inhibition of Trypanosoma cruzi INC-5 epimastigotes, colorimetric analysis with MTT; assay type: cell-based; details: for IC50: Trypanosoma cruzi, 24 h, 24 h + 20 h MTT, 27 °C, confidence interval (Probit) in parentheses, triplicate; for IC50 / activity on T. cruzi (in words): epimastigotes; for activity on T. cruzi (in words): in vitro; for SI (CC50/IC50) T. cruzi: CC50 macrophages J774 / IC50 T. cruzi INC-5 epimastigotes
Experimental: Epimastigotes of T. cruzi INC-5 were harvested after 7 days of growth in culture. […] The microplate was incubated in the dark at 27 °C for 24 h. Epimastigotes with 0.5% DMSO served as the positive viability control and the reference drugs nifurtimox ([…], Bayer, Germany) and benznidazole (Rochagan, Roche, Brazil) served as the negative viability control. Each condition was assayed in triplicate. Upon completion of the incubation time, 10 μL of MTT solution at 5 mg/mL was added to each well, and incubation continued in the dark at 27 °C for 20 h. Then, 100 μL of a solution containing 10% SDS and 0.01 M HCl was added to stop the reaction. […] The plates were read on a spectrophotometer (Spectramax Plus, Molecular Devices) at an absorbance of 570 nm. The result found in each well with a given concentration of the respective compound was compared to the positive viability control and the metabolic inhibition was expressed as a percentage. The IC50 was determined using the Probit statistical tool. MTT is a yellow, water-soluble compound. In living cells, […] is captured and reduced to its insoluble form (formazan, which is purple) by mitochondrial succinate dehydrogenase. The quantity of living cells is proportional to the amount of formazan produced.

[3] = system: L. mexicana promastigotes; test: Metabolic inhibition of Leishmania mexicana promastigotes, fluorometric analysis with resazurin; assay type: cell-based; details: for SI (CC50/IC50) L. mexicana: CC50 macrophages J774 / IC50 L. mexicana promastigotes; for activity on L. mexicana (in words): promastigotes, in vitro; for IC50: Leishmania mexicana, 48 h, read-out: L. mexicana Promastigotes IC50, promastigotes, 24 h + 24 h resazurin, 27 °C, confidence interval (Probit) in parentheses, triplicate
Experimental: A promastigote culture of L. mexicana was harvested in the stationary phase after 7 days of growth in culture. To each well of a sterile 96-well microplate, 5 × 10^5 promastigotes and the compound to be assessed (or the reference drug) were added to a final volume of 100 μL in RPMI culture medium supplemented with 10% SFB and 1% ampicillin/streptomycin. Each compound was examined at different concentrations, obtained by serial two-fold dilutions starting from 50 μg/mL. […] Promastigotes with 0.5% DMSO (at the vehicle concentration of the greatest dilution of the compound) served as the positive viability control and amphotericin B at a final concentration of 5 μg/mL served as the negative viability control. Each condition was assayed in triplicate.
After 24 h of incubation, 10 μL of 0.01% resazurin was added to each of the wells and incubation continued for another 24 h under the same conditions. The plate was read via a fluorometer (Spectramax M3, Molecular Devices, LLC, San Jose, CA, USA) at 544 nm excitation and 590 nm emission. Each treated well was compared to the positive viability control, and metabolic inhibition was expressed as a percentage. The IC50 value was determined with the Probit statistical tool version 4.1 [31, 32, 33].
Resazurin is a blue, permeable, and non-fluorescent compound. Upon entering cells, it is reduced to resorufin due to the reducing environment of the cytosol in living cells. Resorufin is red and highly fluorescent. The number of living cells is proportional to the fluorescence intensity of resorufin [31].

[4] = system: J774A.1 macrophages; test: Cytotoxic effect on macrophages, resazurin; assay type: cell-based, murine; details: murine macrophage cell line
Experimental: as §1

| SMILES | CC50 [1] [µg/mL] | IC50 [2] [µg/mL] | activity on T. cruzi (in words) [2] | melting point [°C] | SI (CC50/IC50) L. mexicana [3] | activity on L. mexicana (in words) [3] | SI (CC50/IC50) T. cruzi [2] | IC50 [3] [µg/mL] | cytotoxic effect on macrophages (in words) [4] |
| --- | --- | --- | --- | --- | --- | --- | --- | --- | --- |
| CCCCCCCCOc1ccc(C2=NCCN2)cc1 [compound 30] | 9.72 | < 1 | active | 102 to 104 | 48.11 | active |  |  |  |
| CCCCCCCCCOc1ccc(C2=NCCN2)cc1 [compound 31] | 50.6 | 21 |  | 103 to 105 | 92.56 |  | 2.40 | < 1 |  |
| O=C(Cn1ccnc1[N+](=O)[O-])NCc1ccccc1 [Bnz, benznidazole, reference compound] | 91.6 | 11 |  |  |  |  | 8.31 |  |  |
| CCCCCCCCOc1ccc(-c2ncc[nH]2)cc1 [compound 35, 8-Octyloxyphenyl-2-imidazole] | 40.2 |  | active | 117 to 119 | 14.92 | active |  | 2.69 |  |
| COc1ccc(C2=NCCN2)cc1 [compound 22, 2-(4-Methoxyphenyl)-4,5-dihydro-1H-imidazole] | > 100 | > 50 | inactive |  | >6.23 |  |  | 16 | least cytotoxic effect |
| CCCCCCOc1ccc(-c2ncc[nH]2)cc1 [compound 33, 8-Hexyloxyphenyl-2-imidazole] | 85.7 | < 10 | active | 133 to 135 | 25.21 | active |  | 3.4 |  |
| CCCCCCOc1ccc([C@@H](O)[C@@H](O)c2ccc(OCCCCCC)cc2)cc1 [compound 37, (1R,2S)-1,2-bis(4-hexyloxyphenyl)ethane-1,2-diol] |  | > 50 | inactivity | 122 to 123 |  | inactivity |  | > 50 |  |
| CCCOc1ccc(C2=NCCN2)cc1 [compound 24, 2-(4-Propyloxyphenyl)-4,5-dihydro-1H-imidazole] |  |  |  | 121 to 122 |  |  |  |  |  |
| O=c1[nH]c2ccccc2nc1CBr [compound 38, 3-(Bromomethyl)quinoxalin-2(1H)-one] |  | > 50 | no effect was detected | 224 to 226 |  | no effect was detected |  | > 50 |  |
| CCOc1ccc(C2=NCCN2)cc1 [compound 23, 2-(4-Ethoxyphenyl)-4,5-dihydro-1H-imidazole] | > 100 | > 50 | inactive | 180 to 182 | >13.12 |  |  | 7.62 | least cytotoxic effect |
| C[C@@H]1[C@H](O)[C@@H](C)/C=C/C=C/C=C/C=C/C=C/C=C/C=C/[C@H](O[C@@H]2O[C@H](C)[C@@H](O)[C@H](N)[C@@H]2O)C[C@@H]2O[C@](O)(C[C@@H](O)C[C@@H](O)[C@H](O)CC[C@@H](O)C[C@@H](O)CC(=O)O[C@H]1C)C[C@H](O)[C@H]2C(=O)O [AmB, amphotericin, reference compound] | 48.1 |  |  |  | 253.26 |  |  | 0.19 |  |
| CC1CS(=O)(=O)CCN1/N=C/c1ccc([N+](=O)[O-])o1 (stereo not drawn) [Nfx, nifurtimox, reference compound] | 57.8 | 2.5 |  |  |  |  | 23.10 |  |  |
| CCCCCCCOc1ccc(C2=NCCN2)cc1 [compound 29, 8-Hepthyloxyphenyl-2-imidazoline] | 21.5 |  |  | 100 to 102 | 106.21 |  |  |  |  |
| CCCCCCCCCOc1ccc(-c2ncc[nH]2)cc1 [compound 36, 8-Nonyloxyphenyl-2-imidazole] | 31.3 | < 1 | active |  | 28.53 | active |  | 1.09 |  |
| CCCCCOc1ccc(C2=NCCN2)cc1 [compound 27, 8-Penthyloxyphenil-2-imidazoline] | 71.3 | 37.5 |  | 129 to 131 | 88.28 |  | 1.90 | < 1 |  |
| CCCCCCOc1ccc(C2=NCCN2)cc1 [compound 28, 8-Hexyloxypheny-2-imidazoline] | 29.2 | 25.1 |  | 133 to 135 | 166.31 |  | 1.16 |  |  |
| CCCCOc1ccc(C2=NCCN2)cc1 [compound 26, 2-(4-Butyloxyphenyl)-4,5-dihydro-1H-imidazole] | > 100 | 48.7 |  | 122 to 123 | >37.98 |  |  | 2.63 |  |
| CC(C)Oc1ccc(C2=NCCN2)cc1 [compound 25, 2-(4-iso-propyloxyphenyl)-4,5-dihydro-1H-imidazole] |  |  |  | 151 to 153 |  |  |  |  |  |
